Measured values as given in patent publication US20230013669A1, “Antibacterial Treatment Using a Cannabinoid and an Active Agent” (priority 2019, published 2023).
Where “and” joins values, the source holds several entries; their conditions need not be identical. Equal entries are not always repeated.

Tested on: Acinetobacter baumannii ATCC 19606 (GN_034)
Assay: Synergy of cannabidiol with cell-wall disrupting agent (CBD MIC in combination, FICI)
Assay type: cell-based
Description: The compounds were stored short term at 4° C.
Analysis was performed using Microsoft Excel.

[1] = CBD with Colistin, Acinetobacter baumannii ATCC 19606
[2] = CBD with MCC_6442, Acinetobacter baumannii ATCC 19606

C=C(C)C1CCC(C)=CC1c1c(O)cc(CCCCC)cc1O (centres unmarked) [Cannabidiol, 2-[3-methyl-6-(1-methylethenyl)-2-cyclohexen-1-yl]-5-pentyl-1,3-benzenediol]
FICI (CBD with Aztreonam at 8 μg/mL, CBD MIC taken as 256 μg/mL): 0.375 | FICI (CBD with Aztreonam at 16 μg/mL, CBD MIC taken as 256 μg/mL): 0.5 | FICI range (CBD with Aztreonam, all tested concentrations (Table 74)): 0.25-1.06 | FICI (CBD with Cefepime at 0.25 μg/mL, CBD MIC taken as 256 μg/mL): 1.016 | FICI (CBD with Cefepime at 0.5 μg/mL, CBD MIC taken as 256 μg/mL): 1.031 | FICI (CBD with Cefepime at 1 μg/mL, CBD MIC taken as 256 μg/mL): 1.0625 | FICI (CBD with Cefepime at 2 μg/mL, CBD MIC taken as 256 μg/mL): 1.125 | FICI (CBD with Cefepime at 4 μg/mL, CBD MIC taken as 256 μg/mL): 0.375 | FICI (CBD with Cefepime at 8 μg/mL, CBD MIC taken as 256 μg/mL): 0.5625 | FICI range (CBD with Cefepime, Synergy table (Table 81)): 0.38 | FICI range (CBD with Cefepime, all tested concentrations (Table 79)): 0.38-1.13 | FICI (CBD with Cefotetan at 4 μg/mL, CBD MIC taken as 256 μg/mL): 1.016 | FICI (CBD with Cefotetan at 8 μg/mL, CBD MIC taken as 256 μg/mL): 1.031 | FICI (CBD with Cefotetan at 16 μg/mL, CBD MIC taken as 256 μg/mL): 1.0625 | FICI (CBD with Cefotetan at 32 μg/mL, CBD MIC taken as 256 μg/mL): 1.125 | FICI (CBD with Cefotetan at 64 μg/mL, CBD MIC taken as 256 μg/mL): 1.25 | FICI (CBD with Cefotetan at 128 μg/mL, CBD MIC taken as 256 μg/mL): 1.5 | FICI range (MIC table) (CBD with Cefotetan, Acinetobacter baumannii ATCC 19606): 1.02-1.5 | FICI (CBD with Ceftazidime at 0.5 μg/mL, Acinetobacter baumannii ATCC 19606): 1.125 | FICI (CBD with Ceftazidime at 1 μg/mL, Acinetobacter baumannii ATCC 19606): 1.25 | FICI (CBD with Ceftazidime at 2 μg/mL, Acinetobacter baumannii ATCC 19606): 1.5 | FICI (CBD with Ceftazidime at 4 μg/mL, Acinetobacter baumannii ATCC 19606): 1.125 | FICI (CBD with Ceftazidime at 8 μg/mL, Acinetobacter baumannii ATCC 19606): 2.0625 | FICI (CBD with Ceftazidime at 16 μg/mL, Acinetobacter baumannii ATCC 19606): 4 | FICI range (MIC table) (CBD with Ceftazidime, Acinetobacter baumannii ATCC 19606): 1.13-4 | FICI (CBD with Cefuroxime at 4 μg/mL, Acinetobacter baumannii ATCC 19606): 1.0625 | FICI (CBD with Cefuroxime at 8 μg/mL, Acinetobacter baumannii ATCC 19606): 1.125 | FICI (CBD with Cefuroxime at 16 μg/mL, Acinetobacter baumannii ATCC 19606): 0.375 | FICI (CBD with Cefuroxime at 32 μg/mL, Acinetobacter baumannii ATCC 19606, listed as CBD): 0.5625 and 0.625 | FICI (CBD with Cefuroxime at 64 μg/mL, Acinetobacter baumannii ATCC 19606): 1 | FICI (CBD with Cefuroxime at 128 μg/mL, Acinetobacter baumannii ATCC 19606): 2 | FICI range (Synergy table) (CBD with Cefuroxime, Acinetobacter baumannii ATCC 19606): 0.38 | FICI (CBD with Colistin at 0.031 μg/mL, Acinetobacter baumannii ATCC 19606): 0.04662 | FICI (CBD with Colistin at 0.062 μg/mL, Acinetobacter baumannii ATCC 19606): 0.06981 | FICI (CBD with Colistin at 0.5 μg/mL, Acinetobacter baumannii ATCC 19606, listed as CBD): 0.501 and 0.5039 | FICI (CBD with Colistin at 1 μg/mL, Acinetobacter baumannii ATCC 19606): 1 | FICI range (MIC table) [1]: 0.05-1 | FICI range (Synergy table) [1]: 0.05-0.5 | FICI range (MIC table) [2]: 0.07-1.02 | FICI range (Synergy table) [2]: 0.09-1.13 | FICI (CBD with MCC_6442 at 0.5 μg/mL, Acinetobacter baumannii ATCC 19606): 1.016 | FICI (CBD with MCC_6442 at 1 μg/mL, Acinetobacter baumannii ATCC 19606): 0.09375 | FICI (CBD with MCC_6442 at 2 μg/mL, Acinetobacter baumannii ATCC 19606): 0.06641 | FICI (CBD with MCC_6442 at 4 μg/mL, Acinetobacter baumannii ATCC 19606): 0.127 | FICI range (CBD with Octapeptin C4, Synergy table (Table 85), listed as CBD): 0.28-0.5 and 0.19-0.5 | FICI range (CBD with Octapeptin C4, all tested concentrations (Table 83), listed as CBD): 0.28-1.13 and 0.19-1.06 | FICI (CBD with Octapeptin C4 at 0.25 μg/mL, CBD MIC taken as 256 μg/mL): 1.031 | FICI (CBD with Octapeptin C4 at 0.25 μg/mL, CBD MIC taken as 256 μg/mL, listed as cannabidiol): 1.016 | FICI (CBD with Octapeptin C4 at 0.5 μg/mL, CBD MIC taken as 256 μg/mL): 1.0625 and 1.031 | FICI (CBD with Octapeptin C4 at 1 μg/mL, CBD MIC taken as 256 μg/mL): 1.125 and 1.0625 | FICI (CBD with Octapeptin C4 at 2 μg/mL, CBD MIC taken as 256 μg/mL): 0.2812 and 0.1875 | FICI (CBD with Octapeptin C4 at 4 μg/mL, CBD MIC taken as 256 μg/mL): 0.5078 and 0.2578 | FICI (CBD with Octapeptin C4 at […], CBD MIC taken as 256 μg/mL): 1.016
